The record followed here is patent US12454529B2, “Piperazine cyclic ureas” (SIRONAX LTD., priority 2020, dated 2025).

What is called EC50 is the concentration that produces a half-maximal response.

The subject of the first experiment is HT-29 cells. The experiment in a line: HT-29 cell necrosis/necroptosis inhibition (TNF-α + SMAC mimetic + zVAD-FMK; CellTiter-Glo cell viability). It is filed as cell-based. The settings on record: Homo sapiens, HT-29, 20 h, read-out: EC50 (Cell activity; Necrosis/Necroptosis Inhibitory Activity, Compounds 1-142). The procedure, abridged:
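HT-29 cells (~5,000/well) were switched to FBS-free McCOY's 5A holding TNF-α (10 ng/ml), SMAC mimetic (6 μM) and zVAD-FMK (10 μM), then dosed with a 10-point 1:3 series for 20 h at 37 °C. CellTiter-Glo luminescence gave viability; geometric mean EC50 from duplicates.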
Regarding `CCn1nc(C)c(-c2nc(N3CCN(C(=O)N4N=CC[C@H]4c4cc(F)cc(F)c4)CC3)ncc2F)c1C` [Compound 117, (S)-(5-(3,5-difluorophenyl)-4,5-dihydro-1H-pyrazol-1-yl)(4-(4-(1-ethyl-3,5-dimethyl-1H-pyrazol-4-yl)-5-fluoropyrimidin-2-yl)piperazin-1-yl)methanone], the EC50 fell in the range of 0.1 to 100 nM.

The experiment is the same for the next values; noted with them: Homo sapiens; HT-29 cells, TNF-α 10 ng/ml + SMAC mimetic 6 μM + zVAD-FMK 10 μM, 20 hours; geometric mean, 10 points in duplicate; read-out: EC50 (Cell activity; Necrosis/Necroptosis Inhibitory Activity, Compounds 1-142).
As to `N#Cc1cccc([C@@H]2CC=NN2C(=O)N2CCN(c3nccc(-n4cc(C(N)=O)cn4)n3)CC2)c1` [Compound 106, (S)-1-(2-(4-(5-(3-cyanophenyl)-4,5-dihydro-1H-pyrazole-1-carbonyl)piperazin-1-yl)pyrimidin-4-yl)-1H-pyrazole-4-carboxamide], the EC50 was in the range of 0.1 to 100 nM. Same read-out and setting: to `NC(=O)Cn1cc(-c2nc(N3CCN(C(=O)N4N=CC[C@H]4c4cc(F)cc(F)c4)CC3)ncc2F)cn1` [Compound 53, (S)-2-(4-(2-(4-(5-(3,5-difluorophenyl)-4,5-dihydro-1H-pyrazole-1-carbonyl)piperazin-1-yl)-5-fluoropyrimidin-4-yl)-1H-pyrazol-1-yl)acetamide] belongs 0.1 to 100 nM; to `CCn1c(C)nn(-c2nc(N3CCN(C(=O)N4N=CC[C@H]4c4cc(F)cc(F)c4)CC3)ncc2F)c1=O` [Compound 98, (S)-2-(2-(4-(5-(3,5-difluorophenyl)-4,5-dihydro-1H-pyrazole-1-carbonyl)piperazin-1-yl)-5-fluoropyrimidin-4-yl)-4-ethyl-5-methyl-2,4-dihydro-3H-1,2,4-triazol-3-one], 0.1 to 100 nM; to `Cc1nc(C)n(-c2nc(N3CCN(C(=O)N4N=CC[C@H]4c4cc(F)cc(F)c4)CC3)ncc2F)n1` [Compound 46], 0.1 to 100 nM.

Consider `N#Cc1cc(F)cc([C@@H]2CC=NN2C(=O)N2CCN(c3ncc(F)c(-c4ccn(CC(N)=O)n4)n3)CC2)c1` [Compound 76, (S)-2-(3-(2-(4-(5-(3-cyano-5-fluorophenyl)-4,5-dihydro-1H-pyrazole-1-carbonyl)piperazin-1-yl)-5-fluoropyrimidin-4-yl)-1H-pyrazol-1-yl)acetamide], for which the EC50 fell in the range of 0.1 to 100 nM. On the same count and under the same terms, to `O=C(N1CCN(c2ncc(F)c(-c3ccc[nH]c3=O)n2)CC1)N1N=CC[C@H]1c1cc(F)cc(F)c1` [Compound 87, (S)-3-(2-(4-(5-(3,5-difluorophenyl)-4,5-dihydro-1H-pyrazole-1-carbonyl)piperazin-1-yl)-5-fluoropyrimidin-4-yl)pyridin-2(1H)-one] belongs 0.1 to 100 nM; to `Cc1n[nH]cc1-c1nc(N2CCN(C(=O)N3N=CC[C@H]3c3cc(F)cc(F)c3)CC2)ncc1F` [Compound 13, (S)-(5-(3,5-difluorophenyl)-4,5-dihydro-1H-pyrazol-1-yl)(4-(5-fluoro-4-(3-methyl-1H-pyrazol-4-yl)pyrimidin-2-yl)piperazin-1-yl)methanone], 0.1 to 100 nM. The same measure, in the same setting: in the case of `Cc1c(-c2nc(N3CCN(C(=O)N4N=CC[C@H]4c4cc(F)cc(F)c4)CC3)ncc2F)nnn1CC(N)=O` [Compound 31, (S)-2-(4-(2-(4-(5-(3,5-difluorophenyl)-4,5-dihydro-1H-pyrazole-1-carbonyl)piperazin-1-yl)-5-fluoropyrimidin-4-yl)-5-methyl-1H-1,2,3-triazol-1-yl)acetamide] it was 0.1 to 100 nM; in that of `Cc1cnn(C)c1-c1nc(N2CCN(C(=O)N3N=CC[C@H]3c3cc(F)cc(F)c3)CC2)ccc1F` [Compound 113, (S)-(5-(3,5-difluorophenyl)-4,5-dihydro-1H-pyrazol-1-yl)(4-(6-(1,4-dimethyl-1H-pyrazol-5-yl)-5-fluoropyridin-2-yl)piperazin-1-yl)methanone], 0.1 to 100 nM; in that of `Cn1ncnc1-c1nc(N2CCN(C(=O)N3N=CC[C@H]3c3cc(F)cc(F)c3)CC2)ncc1F` [Compound 65, (S)-(5-(3,5-difluorophenyl)-4,5-dihydro-1H-pyrazol-1-yl)(4-(5-fluoro-4-(1-methyl-1H-1,2,4-triazol-5-yl)pyrimidin-2-yl)piperazin-1-yl)methanone], 0.1 to 100 nM. The same measure, in the same setting: in the case of `NC(=O)c1cnn(-c2ccnc(N3CCN(C(=O)N4N=CC[C@H]4c4ccccc4)CC3)n2)c1` [Compound 11, (S)-1-(2-(4-(5-phenyl-4,5-dihydro-1H-pyrazole-1-carbonyl)piperazin-1-yl)pyrimidin-4-yl)-1H-pyrazole-4-carboxamide] it was 0.1 to 100 nM; in that of `O=C(N1CCN(c2ncc(F)c(-c3cn[nH]c3)n2)CC1)N1N=CC[C@H]1c1cc(F)cc(F)c1` [Compound 52, (S)-(5-(3,5-difluorophenyl)-4,5-dihydro-1H-pyrazol-1-yl)(4-(5-fluoro-4-(1H-pyrazol-4-yl)pyrimidin-2-yl)piperazin-1-yl)methanone], 0.1 to 100 nM.

The same experiment, now with this note: Homo sapiens; HT-29 cells, TNF-α 10 ng/ml + SMAC mimetic 6 μM + zVAD-FMK 10 μM, 20 hours; geometric mean, 10 points in duplicate; read-out: EC50 (Cell activity; Necrosis/Necroptosis Inhibitory Activity, Compounds 143-323).
As for `Cc1cnn(C)c1-c1cc(N2CCN(C(=O)N3N=CC[C@H]3c3cc(F)cc(F)c3)CC2)c(F)cn1` [Compound 149, (S)-(5-(3,5-difluorophenyl)-4,5-dihydro-1H-pyrazol-1-yl)(4-(2-(1,4-dimethyl-1H-pyrazol-5-yl)-5-fluoropyridin-4-yl)piperazin-1-yl)methanone], the EC50 is 0.1 to 100 nM. On the same count and under the same terms, in the case of `CCn1c(C)nn(-c2nc(N3CCN(C(=O)N4N=CC[C@H]4c4cc(F)cc(C#N)c4)CC3)ncc2F)c1=O` [Compound 181, (S)-3-(1-(4-(4-(4-ethyl-3-methyl-5-oxo-4,5-dihydro-1H-1,2,4-triazol-1-yl)-5-fluoropyrimidin-2-yl)piperazine-1-carbonyl)-4,5-dihydro-1H-pyrazol-5-yl) fluorobenzonitrile] it was 0.1 to 100 nM; in that of `CCn1nc(C)n(-c2nc(N3CCN(C(=O)N4N=CC[C@H]4c4cc(F)cc(C#N)c4)CC3)ncc2F)c1=O` [Compound 183, (S)-3-(1-(4-(4-(1-ethyl-3-methyl-5-oxo-1,5-dihydro-4H-1,2,4-triazol-4-yl)-5-fluoropyrimidin-2-yl)piperazine-1-carbonyl)-4,5-dihydro-1H-pyrazol-5-yl)-5-fluorobenzonitrile], 0.1 to 100 nM; in that of `Cc1cnc(C2CC=NN2C(=O)N2CCN(c3ncc(F)c(-c4nnc(C)s4)n3)CC2)s1` (centres unmarked) [Compound 316], 0.1 to 100 nM. Still for that read-out and setting: in the case of `O=C(N1CCN(c2ncc(F)c(-n3nccc3C(F)(F)F)n2)CC1)N1N=CC[C@H]1c1cncc(F)c1` [Compound 308, (S)-(4-(5-fluoro-4-(5-(trifluoromethyl)-1H-pyrazol-1-yl)pyrimidin-2-yl)piperazin-1-yl)(5-(5-fluoropyridin-3-yl)-4,5-dihydro-1H-pyrazol-1-yl)methanone] it was 0.1 to 100 nM; in that of `Cn1nc(C(N)=O)nc1-c1nc(N2CCN(C(=O)N3N=CCC3c3cc(F)cc(F)c3)CC2)ncc1F` (centres unmarked) [Compound 225, 5-(2-(4-(5-(3,5-difluorophenyl)-4,5-dihydro-1H-pyrazole-1-carbonyl)piperazin-1-yl)-5-fluoropyrimidin-4-yl)-1-methyl-1H-1,2,4-triazole-3-carboxamide], 0.1 to 100 nM; in that of `Cn1nc(CF)nc1-c1nc(N2CCN(C(=O)N3N=CC[C@H]3c3cc(F)cc(C#N)c3)CC2)ncc1F` [Compound 170, (S)-3-fluoro-5-(1-(4-(5-fluoro-4-(3-(fluoromethyl)-1-methyl-1H-1,2,4-triazol-5-yl)pyrimidin-2-yl)piperazine-1-carbonyl)-4,5-dihydro-1H-pyrazol-5-yl)benzonitrile], 0.1 to 100 nM. The same measure, in the same setting: to `Cc1cnc([C@@H]2CC=NN2C(=O)N2CCN(c3ncc(F)c(-c4ncnn4C)n3)CC2)s1` [Compound 318, (S)-(4-(5-fluoro-4-(1-methyl-1H-1,2,4-triazol-5-yl)pyrimidin-2-yl)piperazin-1-yl)(5-(5-methylthiazol-2-yl)-4,5-dihydro-1H-pyrazol-1-yl)methanone] belongs 0.1 to 100 nM. Regarding `O=C(N1CCN(c2ncc(F)c(-n3nccc3C(F)(F)F)n2)CC1)N1N=CC[C@H]1c1cccc(F)c1` [Compound 302, (S)-(4-(5-fluoro-4-(5-(trifluoromethyl)-1H-pyrazol-1-yl)pyrimidin-2-yl)piperazin-1-yl)(5-(3-fluorophenyl)-4,5-dihydro-1H-pyrazol-1-yl)methanone], the EC50 fell in the range of 0.1 to 100 nM. As for `O=C(N1CCN(c2ncc(F)c(-n3cnc(C(F)(F)F)n3)n2)CC1)N1N=CC[C@H]1c1ccccc1` [Compound 312, (S)-(4-(5-fluoro-4-(3-(trifluoromethyl)-1H-1,2,4-triazol-1-yl)pyrimidin-2-yl)piperazinyl)(5-phenyl-4,5-dihydro-1H-pyrazol-1-yl)methanone], the EC50 fell in the range of 0.1 to 100 nM.

Consider `Cc1cnc([C@@H]2CC=NN2C(=O)N2CCN(c3ncc(F)c(-n4nc(C#N)nc4C)n3)CC2)s1` [Compound 319, (S)-1-(5-fluoro-2-(4-(5-(5-methylthiazol-2-yl)-4,5-dihydro-1H-pyrazole-1-carbonyl)piperazin-1-yl)pyrimidin-4-yl)-5-methyl-1H-1,2,4-triazole-3-carbonitrile], for which the EC50 was 0.1 to 100 nM. Same read-out and setting: in the case of `Cc1nc(C(F)(F)F)nn1-c1nc(N2CCN(C(=O)N3N=CC[C@H]3c3cc(F)cc(C#N)c3)CC2)ncc1F` [Compound 207, (S)-3-fluoro-5-(1-(4-(5-fluoro-4-(5-methyl-3-(trifluoromethyl)-1H-1,2,4-triazol-1-yl)pyrimidin-2-yl)piperazine-1-carbonyl)-4,5-dihydro-1H-pyrazol-5-yl)benzonitrile] it was 0.1 to 100 nM; in that of `Cc1nc(C)n(-c2nc(N3CCN(C(=O)N4N=CCC4c4cc(C#N)cc(F)c4F)CC3)ncc2F)n1` (centres unmarked) [Compound 238, 3-(1-(4-(4-(3,5-dimethyl-1H-1,2,4-triazol-1-yl)-5-fluoropyrimidin-2-yl)piperazine-1-carbonyl)-4,5-dihydro-1H-pyrazol-5-yl)-4,5-difluorobenzonitrile], 0.1 to 100 nM.
